Experimental data published in BindingDB's records for doi:10.1016/j.bmcl.2005.11.067 (Merck Sharp and Dohme Research Laboratories, 2006).

Target: T1, Alpha-1A/Alpha-1B/Alpha-1D adrenergic receptor (Rattus norvegicus, UniProt P15823+P23944+P43140)
T1 sequence (P15823 whole entry): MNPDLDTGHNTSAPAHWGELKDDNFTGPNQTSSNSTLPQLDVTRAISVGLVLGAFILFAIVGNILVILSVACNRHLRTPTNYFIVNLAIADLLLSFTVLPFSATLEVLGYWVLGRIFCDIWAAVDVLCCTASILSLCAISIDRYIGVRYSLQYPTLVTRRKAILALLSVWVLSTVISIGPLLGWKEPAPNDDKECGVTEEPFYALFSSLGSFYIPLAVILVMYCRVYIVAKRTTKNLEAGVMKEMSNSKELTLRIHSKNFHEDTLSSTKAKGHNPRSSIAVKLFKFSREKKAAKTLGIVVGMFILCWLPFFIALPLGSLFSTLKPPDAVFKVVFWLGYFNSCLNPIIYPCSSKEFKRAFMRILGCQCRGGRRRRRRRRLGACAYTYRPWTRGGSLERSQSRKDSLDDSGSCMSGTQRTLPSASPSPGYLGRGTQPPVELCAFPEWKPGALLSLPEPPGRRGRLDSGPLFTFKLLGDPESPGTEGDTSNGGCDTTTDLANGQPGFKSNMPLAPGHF
T1 sequence (P43140 whole entry): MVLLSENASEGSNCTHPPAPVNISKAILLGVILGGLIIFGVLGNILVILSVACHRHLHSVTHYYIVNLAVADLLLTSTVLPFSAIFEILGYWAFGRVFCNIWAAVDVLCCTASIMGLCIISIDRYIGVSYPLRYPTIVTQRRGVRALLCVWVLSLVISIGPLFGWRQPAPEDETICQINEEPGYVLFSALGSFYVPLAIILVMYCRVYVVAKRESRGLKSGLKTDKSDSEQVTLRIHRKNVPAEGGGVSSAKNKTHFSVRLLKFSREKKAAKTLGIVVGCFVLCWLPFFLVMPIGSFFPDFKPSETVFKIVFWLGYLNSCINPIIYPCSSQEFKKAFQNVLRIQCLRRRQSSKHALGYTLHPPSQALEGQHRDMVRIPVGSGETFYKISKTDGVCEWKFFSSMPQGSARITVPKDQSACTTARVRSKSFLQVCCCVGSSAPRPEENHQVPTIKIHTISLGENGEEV
T1 sequence (P23944 whole entry): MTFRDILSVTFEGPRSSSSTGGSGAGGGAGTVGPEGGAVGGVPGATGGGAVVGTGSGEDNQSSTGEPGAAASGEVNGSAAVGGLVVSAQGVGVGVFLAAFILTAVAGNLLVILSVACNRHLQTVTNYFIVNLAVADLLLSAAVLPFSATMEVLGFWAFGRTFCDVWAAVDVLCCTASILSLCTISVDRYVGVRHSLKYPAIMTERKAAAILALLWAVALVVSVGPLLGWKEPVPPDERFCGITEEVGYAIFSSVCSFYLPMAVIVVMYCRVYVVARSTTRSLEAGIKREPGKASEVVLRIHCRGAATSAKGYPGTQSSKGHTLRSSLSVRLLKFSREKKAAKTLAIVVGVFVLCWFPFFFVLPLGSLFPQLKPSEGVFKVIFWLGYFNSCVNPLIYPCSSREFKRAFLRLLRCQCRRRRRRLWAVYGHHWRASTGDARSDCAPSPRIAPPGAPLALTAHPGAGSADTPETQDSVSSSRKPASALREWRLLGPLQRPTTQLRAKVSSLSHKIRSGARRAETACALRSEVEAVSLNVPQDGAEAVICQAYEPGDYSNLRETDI
Test: Displacement of [3H]prazosin from alpha-1 adrenergic receptor in rat cortex

| Ki [µM] | SMILES |
| --- | --- |
| > 4 | CC(C)(CCCN1CCCC(c2cnco2)C1)S(=O)(=O)c1ccccc1 (centres undefined) |
| > 4 | CCOC(=O)[C@@H]1CCCN(CCCC(C)(C)S(=O)(=O)c2ccccc2)C1 |
| 0.54 | CC(C)(CCCN1CCCC(c2ccccc2)C1)S(=O)(=O)c1ccccc1 (centres undefined) |
| > 4 | CC(C)(CCCN1CCCC(C(F)(F)F)C1)S(=O)(=O)c1ccccc1 (centres undefined) |
